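Compound exposure: 48 hours, 5 concentrations, 96-well plates. Abbreviation: GI50, concentration required for 50% inhibition of growth. TGI: concentration producing complete growth inhibition.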

The values that follow come from PubChem BioAssay (NCI).

Among the test systems are CAKI-1 renal; HL-60(TB) leukemia; HT29 colon; M14 melanoma; SF-268 CNS; SW-620 colon; RXF 393 renal; UO-31 renal; IGROV1 ovarian; OVCAR-4 ovarian.
Common to all, as to experiment: inhibition of tumour cell growth, NCI panel, 48 h

In the case of `Clc1cc(Cl)c(OCC#CI)cc1Cl`, the GI50 is 1.09 µM in the assay on CAKI-1 renal; 2 µM with HL-60(TB) leukemia; 2.1 µM in the assay with HT29 colon; 2.13 µM in the assay on M14 melanoma; 11 µM with SF-268 CNS; 1.76 µM in the assay on SW-620 colon. In addition, the GI50 in the assay with RXF 393 renal was 2.37 µM. For the same molecule, the TGI in the assay on CAKI-1 renal came to 2.69 µM; in the assay with HL-60(TB) leukemia, 5.22 µM; in the assay on HT29 colon, 5.66 µM; with M14 melanoma, 5.41 µM; in the assay on SF-268 CNS, 23.4 µM; with SW-620 colon, 3.88 µM. The TGI in the assay on RXF 393 renal came out at 6.28 µM.
`CCCCCCCCCCCC(=O)OCCOCCOCCOCCOCCOCc1ccc(OC)cc1`: the TGI is > 100 µM in the assay with CAKI-1 renal; 51.7 µM with HL-60(TB) leukemia; > 100 µM in the assay on HT29 colon; > 100 µM in the assay on M14 melanoma; > 100 µM in the assay on SF-268 CNS; > 100 µM in the assay on UO-31 renal. Besides, the TGI with IGROV1 ovarian, in the assay on SW-620 colon, with OVCAR-4 ovarian and in the assay with RXF 393 renal was > 100 µM throughout.
On to `COc1ccc(-c2n[nH]nc2-c2cc(OC)c3c(c2OC)OCO3)cc1`, for which the GI50 is 0.839 µM with CAKI-1 renal; 0.293 µM in the assay on HL-60(TB) leukemia; 0.48 µM in the assay with HT29 colon; 0.433 µM in the assay with M14 melanoma; 2.98 µM in the assay on SF-268 CNS; 3.83 µM with UO-31 renal. The GI50 in the assay on IGROV1 ovarian was 0.885 µM; with SW-620 colon, 0.348 µM; in the assay on OVCAR-4 ovarian it was 4.81 µM; in the assay with RXF 393 renal, 1.1 µM. Also, the TGI in the assay with CAKI-1 renal was > 60.1 µM; in the assay on HL-60(TB) leukemia, 0.975 µM; with HT29 colon, 13.7 µM; in the assay with M14 melanoma, 19.5 µM; in the assay on SF-268 CNS, 54.3 µM; in the assay with UO-31 renal, 46.6 µM. Besides, the TGI with IGROV1 ovarian was > 68 µM; in the assay with SW-620 colon, > 95.6 µM; in the assay on OVCAR-4 ovarian, > 76.3 µM; in the assay with RXF 393 renal, 5.37 µM.
On to `Cc1cc(N/N=C/c2nc(-c3ccc(Br)cc3)oc2C)c2cc(Cl)ccc2n1`, for which the GI50 in the assay on CAKI-1 renal, with HL-60(TB) leukemia, with HT29 colon, in the assay on M14 melanoma, with SF-268 CNS and in the assay on UO-31 renal was > 100 µM in each case. Further, the GI50 with IGROV1 ovarian, with SW-620 colon, in the assay with OVCAR-4 ovarian and in the assay on RXF 393 renal was > 100 µM in each case. Moreover, the TGI in the assay with CAKI-1 renal, in the assay with HL-60(TB) leukemia, in the assay with HT29 colon, in the assay with M14 melanoma, in the assay on SF-268 CNS and with UO-31 renal was > 100 µM in each case. Further, the TGI in the assay on IGROV1 ovarian, in the assay with SW-620 colon, with OVCAR-4 ovarian and with RXF 393 renal was > 100 µM in each case.
For the molecule `CCCCCCc1cc(C(=O)Nc2cccc(C(F)(F)F)c2)nc(N)n1`, the TGI in the assay with CAKI-1 renal, with HL-60(TB) leukemia, in the assay with HT29 colon, in the assay on M14 melanoma, in the assay on SF-268 CNS and with UO-31 renal was > 100 µM throughout. In addition, the TGI in the assay with IGROV1 ovarian, in the assay with SW-620 colon, with OVCAR-4 ovarian and in the assay with RXF 393 renal was > 100 µM in each case.
Regarding `CCCCCCCCCCCCCCCCCC(=O)OCC(COC1OC(COP(=O)(O)O)C(O)C(O)C1O)OC(=O)CCCCCCCCCCCCCCCCC` (stereo not given), the TGI with CAKI-1 renal stood at 16.9 µM; with HL-60(TB) leukemia, 21.1 µM; in the assay on HT29 colon it was 11.7 µM; in the assay with M14 melanoma, 17.3 µM; in the assay with SF-268 CNS, 17 µM; with IGROV1 ovarian, 10.5 µM. Moreover, the TGI with SW-620 colon was found to be 17.9 µM; in the assay on OVCAR-4 ovarian, 14.5 µM; in the assay with RXF 393 renal, 16.8 µM.
Regarding `C[Si](C)(C)OC1(C#N)C2C3CC4C2C(=O)C2C4C3C21` (stereo not given), the TGI with CAKI-1 renal, in the assay on HL-60(TB) leukemia, in the assay with M14 melanoma, in the assay on SF-268 CNS, in the assay on UO-31 renal and with IGROV1 ovarian was > 100 µM in each case. Besides, the TGI in the assay with SW-620 colon, with OVCAR-4 ovarian and with RXF 393 renal was > 100 µM in each case.
`O=C(c1ccccc1)C(CN1CCOCC1)c1ccccc1` (stereo not given): the GI50 in the assay on CAKI-1 renal was 0.565 µM; with HL-60(TB) leukemia it was 1.95 µM; with HT29 colon, 0.501 µM; with M14 melanoma, 1.66 µM; in the assay with SF-268 CNS it was 1.65 µM; in the assay on UO-31 renal, 1.41 µM. Besides, the GI50 with IGROV1 ovarian is 1.75 µM; in the assay with SW-620 colon, 0.372 µM; in the assay with OVCAR-4 ovarian, 3.88 µM; with RXF 393 renal it was 1.8 µM. Also, the TGI in the assay on CAKI-1 renal was determined as 1.95 µM; in the assay on HL-60(TB) leukemia, 5.57 µM; with HT29 colon it was 1.89 µM; with M14 melanoma, 3.57 µM; in the assay on SF-268 CNS, 3.47 µM; in the assay on UO-31 renal, 3.02 µM. In addition, the TGI in the assay with IGROV1 ovarian was 4.24 µM; with SW-620 colon, 1.28 µM; in the assay with OVCAR-4 ovarian it was 19.3 µM; in the assay with RXF 393 renal, 3.36 µM.
`CCC1CN2CCc3cc(OC)c(OC)cc3C2CC1CC1c2cc(OC)c(OC)cc2CCN1C(=O)C1CCCN1C(=O)OCc1ccccc1` (stereo not given): the TGI in the assay with CAKI-1 renal came out at 47.3 µM; in the assay on HL-60(TB) leukemia it was 28.9 µM; with HT29 colon it was 27.4 µM; with M14 melanoma it was 30.9 µM; in the assay with SF-268 CNS it was 31.9 µM; with UO-31 renal it was 26 µM. For the same molecule, the TGI in the assay on IGROV1 ovarian came out at 33.4 µM; in the assay on SW-620 colon it was 28 µM; with OVCAR-4 ovarian, 27.4 µM; with RXF 393 renal it was 22.4 µM.
Turning to `c1ccc(SC(CCCCC(Sc2ccccc2)Sc2ccccc2)Sc2ccccc2)cc1`, the TGI in the assay with CAKI-1 renal, in the assay with HL-60(TB) leukemia, with M14 melanoma, in the assay on SF-268 CNS, in the assay on UO-31 renal and in the assay on SW-620 colon was > 100 µM each time. Besides, the TGI in the assay with OVCAR-4 ovarian and with RXF 393 renal was > 100 µM each time.
